From patent US9925170B2, “Methods of adipolysis and compositions useful therein” (priority 2015, dated 2018)

Experiments:
Human mature adipocytes = system: Human mature adipocytes
Protocol: Human pre-adipocytes (Lonza, Allendale, N.J.) were differentiated into mature adipocytes according to the supplier's instructions. Mature adipocytes in maintenance medium (Zen-Bio, Research Triangle Park, N.C.) were treated with different statins (Sigma, St. Louis, Mo.) for 7 days over a range of concentrations. Cell viability was measured at Day 1, 3, 5, and 7 using the ALAMARBLUE® assay (Invitrogen, Carlsbad, Calif.).

[1] = system: subcutaneous adipose tissue; assay: Daily topical or intraperitoneal administration in mice, histopathology of mid-scapular skin; type: in vivo, Female BALB/cAnNCrl mice
Protocol: Female BALB/cAnNCrl mice were divided into five groups of three mice/group and seven groups of eight mice/group. Mice in Group 1 were age-matched, untreated pre-study reference animals, and mice in Group 2 were age-matched, untreated Day 29 reference animals. […] Mid-scapular skin was collected from each animal and histopathological examination was performed to determine the effects of the test articles on subcutaneous adipose deposition and skin thickness.

subcutaneous fat layer = settings: 25 mg/kg intraperitoneal, 28 consecutive days (FIG. 6)
Protocol: Three untreated mice were used as reference animals. On Day 29, all animals were sacrificed and histopathological examination of the dorsal lumbar skin was performed. […] The severity of subcutaneous fat atrophy was scored on a scale ranging from normal (score of “0”) to severe (score of “4”).

[2] = intraperitoneal 25 mg/kg, 28 days

Row | SMILES | dose dependence of cytotoxic effect (Human mature adipocytes) | atrophy of subcutaneous adipose tissue [1, 2] | atrophy of subcutaneous adipose tissue ([1]; topical 0.5%, 7 days) | atrophy of subcutaneous adipose tissue ([1]; topical 2.5%, 7 days) | atrophy of subcutaneous adipose tissue ([1]; topical 2.5%, 28 days) | atrophy of subcutaneous adipose tissue ([1]; topical 0.5%, 28 days) | fat layer atrophy in skin sections (subcutaneous fat layer)
1 | CC(C)n1c(/C=C/C(O)CC(O)CC(=O)O)c(-c2ccc(F)cc2)c2ccccc21 (stereo not drawn) [fluvastatin] | dose-dependent cytotoxic effect | – | – | – | – | – | –
2 | Cc1ccc(N(CC2=NCCN2)c2cccc(O)c2)cc1 [phentolamine] | – | present in skin of all mice | present in mice | present in mice | in one mouse | – | –
3 | CC(=O)[C@H]1CC[C@H]2[C@@H]3CC=C4C[C@@H](O)CC[C@]4(C)[C@H]3CC[C@]12C [pregnenolone] | – | present in skin of all mice | – | – | – | present in a one mouse | –
4 | CC[C@H](C)C(=O)O[C@H]1C[C@@H](C)C=C2C=C[C@H](C)[C@H](CC[C@@H]3C[C@@H](O)CC(=O)O3)[C@H]21 [lovastatin] | – | present in skin of all mice | – | present in all mice | present in all mice | Only one mouse | significant fat layer atrophy
